# Experimental data taken from patent publication US20250084095A1, “Aminopyrimidine Derivatives as Cyclin-Dependent Kinase Inhibitors” (Accutar Biotechnology Inc., priority 2023, published 2025).
# Columns and labels:
# [1] = system: Phospho-Rb (Ser807/811) in MCF7 cells; test: Phospho-Rb expression inhibition in MCF7 cells quantified by in cell Western; format: cell-based, human; settings: Homo sapiens, MCF7, 24 h, 24 hours, in cell Western, read-out: MCF7 pRb IC50
# In short: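 MCF7 cells were seeded at 20,000/well, grown overnight, then treated 24 h at 37 °C with compound dilutions (0.1% DMSO from 1000× stocks). Fixed cells were co-stained for phospho-Rb Ser807/811 and total Rb. Near-infrared dual-channel in-cell Western imaging was the read-out.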
# 22RV1 cells = test: Cell growth inhibition of 22RV1 cells (CellTiter-Glo); format: cell-based; settings: Homo sapiens, 22Rv1, 120 h, 5 days, CellTiter-Glo, read-out: 22RV1 Cell Growh GI50
# In short: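 22RV1 cells were plated in RPMI1640 with FBS (20% in one version, 10% in the other) and dosed next day at various concentrations from DMSO stocks. After 5 days at 37 °C, viability was measured by CellTiter-Glo luminescence.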
IC50 [1],GI50 (22RV1 cells),Compound
≤ 40 nM,≤ 120 nM,"Cc1c(CN2[C@@H](C)COC[C@@H]2C)n(C(C)C)c2cc(-c3nc(N[C@@H]4C[C@H]5CO[C@H](O5)[C@H]4O)ncc3F)ccc2c1=O [Compound 199, 2-(((3S,5S)-3,5-dimethylmorpholino)methyl)-7-(5-fluoro-2-(((1S,3R,4S,5R)-4-hydroxy-6,8-dioxabicyclo[3.2.1]octan-3-yl)amino)pyrimidin-4-yl)-1-isopropyl-3-methylquinolin-4(1H)-one]"
≤ 40 nM,120 to 450 nM,"Cc1c(-c2nc(N[C@@H]3C[C@H]4CO[C@H](O4)[C@H]3O)ncc2F)sc2c(Cl)c(C(C)(C)O)cnc12 [Compound 276, (1S,3R,4S,5R)-3-((4-(7-chloro-6-(2-hydroxypropan-2-yl)-3-methylthieno[3,2-b]pyridin-2-yl)-5-fluoropyrimidin-2-yl)amino)-6,8-dioxabicyclo[3.2.1]octan-4-ol]"
≤ 40 nM,≤ 120 nM,"Cc1c(-c2nc(N[C@@H]3C[C@H]4CO[C@H](O4)[C@H]3O)ncc2Cl)sc2c(C(C)C)cn(C)c(=O)c12 [Compound 223, 2-(5-chloro-2-(((1S,3R,4S,5R)-4-hydroxy-6,8-dioxabicyclo[3.2.1]octan-3-yl)amino)pyrimidin-4-yl)-7-isopropyl-3,5-dimethylthieno[3,2-c]pyridin-4(5H)-one]"
≤ 40 nM,≤ 120 nM,"Cc1c(C(C)(C)O)cnc2c(F)cc(-c3nc(N[C@@H]4C[C@H]5CO[C@H](O5)[C@H]4O)ncc3F)cc12 [Compound 256, (1S,3R,4S,5R)-3-((5-fluoro-4-(8-fluoro-3-(2-hydroxypropan-2-yl)-4-methylquinolin-6-yl)pyrimidin-2-yl)amino)-6,8-dioxabicyclo[3.2.1]octan-4-ol]"
≤ 40 nM,≤ 120 nM,"Cc1c(CN2CC[C@H](F)C2)n(C(C)C)c2cc(-c3nc(N[C@@H]4C[C@H]5CO[C@H](O5)[C@H]4O)ncc3F)ccc2c1=O [Compound 293, 7-(5-fluoro-2-(((1S,3R,4S,5R)-4-hydroxy-6,8-dioxabicyclo[3.2.1]octan-3-yl)amino)pyrimidin-4-yl)-2-(((S)-3-fluoropyrrolidin-1-yl)methyl)-1-isopropyl-3-methylquinolin-4(1H)-one]"
40 to 150 nM,450 to 3000 nM,"Cc1c(-c2nc(N[C@@H]3C[C@H]4CO[C@H](O4)[C@H]3O)ncc2Cl)sc2c(Cl)c(C(C)(C)O)cnc12 [Compound 275, (1S,3R,4S,5R)-3-((5-chloro-4-(7-chloro-6-(2-hydroxypropan-2-yl)-3-methylthieno[3,2-b]pyridin-2-yl)pyrimidin-2-yl)amino)-6,8-dioxabicyclo[3.2.1]octan-4-ol]"
≤ 40 nM,120 to 450 nM,"Cc1c(-c2nc(N[C@@H]3C[C@H]4CO[C@H](O4)[C@H]3O)ncc2Cl)sc2c(C)c(C(C)(C)O)cnc12 [Compound 277, (1S,3R,4S,5R)-3-((5-chloro-4-(6-(2-hydroxypropan-2-yl)-3,7-dimethylthieno[3,2-b]pyridin-2-yl)pyrimidin-2-yl)amino)-6,8-dioxabicyclo[3.2.1]octan-4-ol]"
≤ 40 nM,≤ 120 nM,"CC(C)(O)c1cnc2c(F)cc(-c3nc(N[C@@H]4C[C@H]5CO[C@H](O5)[C@H]4O)ncc3F)cc2c1Cl [Compound 255, (1S,3R,4S,5R)-3-((4-(4-chloro-8-fluoro-3-(2-hydroxypropan-2-yl)quinolin-6-yl)-5-fluoropyrimidin-2-yl)amino)-6,8-dioxabicyclo[3.2.1]octan-4-ol]"
40 to 150 nM,120 to 450 nM,"CNCc1c(C)c(=O)c2ccc(-c3nc(N[C@@H]4C[C@H]5CO[C@H](O5)[C@H]4O)ncc3F)cc2n1C(C)C [Compound 194, 7-(5-fluoro-2-(((1S,3R,4S,5R)-4-hydroxy-6,8-dioxabicyclo[3.2.1]octan-3-yl)amino)pyrimidin-4-yl)-1-isopropyl-3-methyl-2-((methylamino)methyl)quinolin-4(1H)-one]"
≤ 40 nM,≤ 120 nM,"Cc1c(-c2nc(N[C@@H]3C[C@H]4CO[C@H](O4)[C@H]3O)ncc2Cl)sc2c(C(C)C)cnnc12 [Compound 259, (1S,3R,4S,5R)-3-((5-chloro-4-(4-isopropyl-7-methylthieno[3,2-c]pyridazin-6-yl)pyrimidin-2-yl)amino)-6,8-dioxabicyclo[3.2.1]octan-4-ol]"
40 to 150 nM,120 to 450 nM,"Cc1nc2c(F)cc(-c3nc(N[C@@H]4C[C@H]5CO[C@H](O5)[C@H]4O)ncc3Cl)cc2n1C(C)C [Compound 25, (1S,3R,4S,5R)-3-((5-chloro-4-(4-fluoro-1-isopropyl-2-methyl-1H-benzo[d]imidazol-6-yl)pyrimidin-2-yl)amino)-6,8-dioxabicyclo[3.2.1]octan-4-ol]"
40 to 150 nM,450 to 3000 nM,"Cc1c(C)n(C(C)C)c2cc(-c3nc(N[C@@H]4C[C@H]5CO[C@H](O5)[C@H]4O)ncc3Cl)ccc2c1=O [Compound 191, 7-(5-chloro-2-(((1S,3R,4S,5R)-4-hydroxy-6,8-dioxabicyclo[3.2.1]octan-3-yl)amino)pyrimidin-4-yl)-1-isopropyl-2,3-dimethylquinolin-4(1H)-one]"
40 to 150 nM,120 to 450 nM,"CC(C)n1c(CN2[C@@H](C)COC[C@@H]2C)c(F)c(=O)c2ccc(-c3nc(N[C@@H]4C[C@H]5CO[C@H](O5)[C@H]4O)ncc3Cl)cc21 [Compound 201, 7-(5-chloro-2-(((1S,3R,4S,5R)-4-hydroxy-6,8-dioxabicyclo[3.2.1]octan-3-yl)amino)pyrimidin-4-yl)-2-(((3S,5S)-3,5-dimethylmorpholino)methyl)-3-fluoro-1-isopropylquinolin-4(1H)-one]"
40 to 150 nM,120 to 450 nM,"CC(C)n1c(CN2[C@@H](C)COC[C@@H]2C)cc(=O)c2ccc(-c3nc(N[C@@H]4C[C@H]5CO[C@H](O5)[C@H]4O)ncc3Cl)cc21 [Compound 205, 7-(5-chloro-2-(((1S,3R,4S,5R)-4-hydroxy-6,8-dioxabicyclo[3.2.1]octan-3-yl)amino)pyrimidin-4-yl)-2-(((3S,5S)-3,5-dimethylmorpholino)methyl)-1-isopropylquinolin-4(1H)-one]"
40 to 150 nM,120 to 450 nM,"Cc1c(CN2CC(F)C2)n(C(C)C)c2cc(-c3nc(N[C@@H]4C[C@H]5CO[C@H](O5)[C@H]4O)ncc3F)ccc2c1=O [Compound 197, 7-(5-fluoro-2-(((1S,3R,4S,5R)-4-hydroxy-6,8-dioxabicyclo[3.2.1]octan-3-yl)amino)pyrimidin-4-yl)-2-((3-fluoroazetidin-1-yl)methyl)-1-isopropyl-3-methylquinolin-4(1H)-one]"
≤ 40 nM,≤ 120 nM,"Cc1c(-c2nc(N[C@@H]3C[C@H]4CO[C@H](O4)[C@H]3O)ncc2C(F)F)sc2c(C(C)C)cn(C)c(=O)c12 [Compound 227, 2-(5-(difluoromethyl)-2-(((1S,3R,4S,5R)-4-hydroxy-6,8-dioxabicyclo[3.2.1]octan-3-yl)amino)pyrimidin-4-yl)-7-isopropyl-3,5-dimethylthieno[3,2-c]pyridin-4(5H)-one]"
≤ 40 nM,≤ 120 nM,"Cc1c(CN2[C@@H](C)COC[C@@H]2C)n(C(C)C)c2cc(-c3nc(N[C@@H]4C[C@H]5CO[C@H](O5)[C@H]4O)ncc3Cl)ccc2c1=O [Compound 206, 7-(5-chloro-2-(((1S,3R,4S,5R)-4-hydroxy-6,8-dioxabicyclo[3.2.1]octan-3-yl)amino)pyrimidin-4-yl)-2-(((3S,5S)-3,5-dimethylmorpholino)methyl)-1-isopropyl-3-methylquinolin-4(1H)-one]"
